How the values were obtained:
bedstraw = assay: Test B pre/postemergence bedstraw; format: in vivo, Galium aparine
Procedure, shortened: (§1)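 Response is a visual 0-to-10 score relative to untreated plants, where 0 means no effect and 10 means complete control, taken twelve to sixteen days after application. Treatments went onto soil at planting and onto foliage of 1- to 4-leaf plants, using a surfactant-containing non-phytotoxic solvent.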

blackgrass = assay: Test B pre/postemergence blackgrass; format: in vivo, Alopecurus myosuroides
Procedure, shortened: as §1

surinam grass = assay: Test B pre/postemergence surinam grass; format: in vivo, Brachiaria decumbens
Procedure, shortened: as §1

cocklebur = assay: Test B pre/postemergence cocklebur; format: in vivo, Xanthium strumarium
Procedure, shortened: as §1

corn = assay: Test B pre/postemergence corn; format: in vivo, Zea mays
Procedure, shortened: as §1

crabgrass = assay: Test B pre/postemergence crabgrass; format: in vivo, Digitaria sanguinalis
Procedure, shortened: as §1

giant foxtail = assay: Test B pre/postemergence giant foxtail; format: in vivo, Setaria faberii
Procedure, shortened: as §1

morningglory = assay: Test B pre/postemergence morningglory; format: in vivo, Ipomoea hederacea
Procedure, shortened: as §1

pigweed = assay: Test B pre/postemergence pigweed; format: in vivo, Amaranthus retroflexus
Procedure, shortened: as §1

rape = assay: Test B pre/postemergence rape; format: in vivo, Brassica napus
Procedure, shortened: as §1

soybean = assay: Test B pre/postemergence soybean; format: in vivo, Glycine max
Procedure, shortened: as §1

sugar beet = assay: Test B pre/postemergence sugar beet; format: in vivo, Beta vulgaris
Procedure, shortened: as §1

velvetleaf = assay: Test B pre/postemergence velvetleaf; format: in vivo, Abutilon theophrasti
Procedure, shortened: as §1

wheat = assay: Test B pre/postemergence wheat; format: in vivo, Triticum aestivum
Procedure, shortened: as §1

wild oat = assay: Test B pre/postemergence wild oat; format: in vivo, Avena fatua
Procedure, shortened: as §1

purple nutsedge = assay: Test B pre/postemergence purple nutsedge; format: in vivo, Cyperus rotundus
Procedure, shortened: as §1

[1] = Postemergence, Rate 62 g/ha, scale of 0 to 10, 0 is no effect, 10 is complete control
[2] = Postemergence, Rate 125 g/ha, scale 0 to 10, 0 is no effect, 10 is complete control
[3] = Postemergence, Rate 500 g/ha, scale of 0 to 10 where 0 is no effect and 10 is complete control
[4] = Preemergence, Rate 62 g/ha, scale 0 to 10 (0 no effect, 10 complete control)
[5] = Preemergence, Rate 125 g/ha, scale 0 to 10, 0 is no effect, 10 is complete control
[6] = Preemergence, Rate 500 g/ha, scale of 0 to 10 where 0 is no effect and 10 is complete control
[7] = Rate 250 g/ha, Postemergence, scale of 0 to 10 where 0 is no effect and 10 is complete control

In the case of `CCOCn1c(=O)on(C(=O)N(c2ccccc2)C(C)C)c1=O` [Compound 563], the “Bedstraw plant response rating” value (bedstraw; [1]) is reported as 0, the “Bedstraw plant response rating” value (bedstraw; [2]) is reported as 0 and the “Plant response rating, Bedstraw” value (bedstraw; [3]) is reported as 0. The “Bedstraw plant response rating” value (bedstraw; [4]) was 0, the “Bedstraw plant response rating” value (bedstraw; [5]) was 0 and the “Bedstraw plant response rating (0 to 10 scale)” value (bedstraw; Preemergence, Rate 250 g/ha) was 0. For the same compound, the “Bedstraw plant response rating” value (bedstraw; [6]) was 0, the “Blackgrass plant response rating” value (blackgrass; [1]) was 0 and the “Blackgrass plant response rating” value (blackgrass; [2]) was 0. For the same compound, the “Plant response rating, Blackgrass” value (blackgrass; [3]) was 4, the “Blackgrass plant response rating” value (blackgrass; [4]) was 2 and the “Blackgrass plant response rating” value (blackgrass; [5]) was 8. The “Blackgrass plant response rating (0 to 10 scale)” value (blackgrass; Preemergence, Rate 250 g/ha) was 9, the “Blackgrass plant response rating” value (blackgrass; [6]) was 9 and the “Plant response rating, Blackgrass” value (blackgrass; [7]) was 4. The “B. signalgrass plant response rating” value (surinam grass; [1]) was 0, the “B. signalgrass plant response rating” value (surinam grass; [2]) was 4 and the “Plant response rating, B. signalgrass” value (surinam grass; [3]) was 7. The “B. signalgrass plant response rating” value (surinam grass; [4]) was 3, the “B. signalgrass plant response rating” value (surinam grass; [5]) was 9 and the “B. signalgrass plant response rating (0 to 10 scale, 0 is no effect, 10 is complete control)” value (surinam grass; Preemergence, Rate 250 g/ha) was 9. For the same compound, the “B. signalgrass plant response rating” value (surinam grass; [6]) was 10, the “Plant response rating, B. signalgrass” value (surinam grass; [7]) was 5 and the “Cocklebur plant response rating” value (cocklebur; [1]) was 0. For the same compound, the “Cocklebur plant response rating” value (cocklebur; [2]) was 0, the “Plant response rating, Cocklebur” value (cocklebur; [3]) was 2 and the “Cocklebur plant response rating” value (cocklebur; [4]) was 0. The “Cocklebur plant response rating” value (cocklebur; [5]) was 0, the “Cocklebur plant response rating (0 to 10 scale)” value (cocklebur; Preemergence, Rate 250 g/ha) was 0 and the “Cocklebur plant response rating” value (cocklebur; [6]) was 2. The “Plant response rating, Cocklebur” value (cocklebur; [7]) was 0, the “Corn plant response rating” value (corn; [1]) was 0 and the “Corn plant response rating” value (corn; [2]) was 0. The “Plant response rating, Corn” value (corn; [3]) was 8, the “Corn plant response rating” value (corn; [4]) was 0 and the “Corn plant response rating” value (corn; [5]) was 0. The “Corn plant response rating (0 to 10 scale)” value (corn; Preemergence, Rate 250 g/ha) was 4, the “Corn plant response rating” value (corn; [6]) was 9 and the “Plant response rating, Corn” value (corn; [7]) was 4. For the same compound, the “Crabgrass plant response rating” value (crabgrass; [1]) was 9, the “Crabgrass plant response rating” value (crabgrass; [2]) was 9 and the “Plant response rating, Crabgrass” value (crabgrass; [3]) was 9. The “Crabgrass plant response rating” value (crabgrass; [4]) was 8, the “Crabgrass plant response rating” value (crabgrass; [5]) was 9 and the “Crabgrass plant response rating (0 to 10 scale)” value (crabgrass; Preemergence, Rate 250 g/ha) was 10. The “Crabgrass plant response rating” value (crabgrass; [6]) was 9, the “Plant response rating, Crabgrass” value (crabgrass; [7]) was 8 and the “Giant foxtail plant response rating” value (giant foxtail; [1]) was 6. For the same compound, the “Giant foxtail plant response rating” value (giant foxtail; [2]) was 8, the “Plant response rating, Giant foxtail” value (giant foxtail; [3]) was 9 and the “Giant foxtail plant response rating” value (giant foxtail; [4]) was 9. For the same compound, the “Giant foxtail plant response rating” value (giant foxtail; [5]) was 9, the “Giant foxtail plant response rating (0 to 10 scale)” value (giant foxtail; Preemergence, Rate 250 g/ha) was 10 and the “Giant foxtail plant response rating” value (giant foxtail; [6]) was 10. The “Plant response rating, Giant foxtail” value (giant foxtail; [7]) was 8, the “Morningglory plant response rating” value (morningglory; [1]) was 4 and the “Morningglory plant response rating” value (morningglory; [2]) was 6. For the same compound, the “Plant response rating, Morningglory” value (morningglory; [3]) was 10, the “Morningglory plant response rating” value (morningglory; [4]) was 0 and the “Morningglory plant response rating” value (morningglory; [5]) was 0. The “Morningglory plant response rating (0 to 10 scale)” value (morningglory; Preemergence, Rate 250 g/ha) was 0, the “Morningglory plant response rating” value (morningglory; [6]) was 3 and the “Plant response rating, Morningglory” value (morningglory; [7]) was 10. For the same compound, the “Redroot pigweed plant response rating” value (pigweed; [1]) was 0, the “Plant response rating, Redroot pigweed” value (pigweed; [3]) was 5 and the “Redroot pigweed plant response rating” value (pigweed; [4]) was 4. The “Redroot pigweed plant response rating” value (pigweed; [5]) was 9, the “Redroot pigweed plant response rating (0 to 10 scale)” value (pigweed; Preemergence, Rate 250 g/ha) was 9 and the “Redroot pigweed plant response rating” value (pigweed; [6]) was 9. The “Plant response rating, Redroot pigweed” value (pigweed; [7]) was 5, the “Rape plant response rating” value (rape; [1]) was 0 and the “Rape plant response rating” value (rape; [2]) was 0. For the same compound, the “Plant response rating, Rape” value (rape; [3]) was 5, the “Rape plant response rating” value (rape; [4]) was 0 and the “Rape plant response rating” value (rape; [5]) was 4. The “Rape plant response rating (0 to 10 scale)” value (rape; Preemergence, Rate 250 g/ha) was 9, the “Rape plant response rating” value (rape; [6]) was 9 and the “Plant response rating, Rape” value (rape; [7]) was 5. For the same compound, the “Soybean plant response rating” value (soybean; [1]) was 5, the “Plant response rating, Soybean” value (soybean; [3]) was 5 and the “Soybean plant response rating” value (soybean; [4]) was 0. The “Soybean plant response rating” value (soybean; [5]) was 0, the “Soybean plant response rating (0 to 10 scale)” value (soybean; Preemergence, Rate 250 g/ha) was 3 and the “Soybean plant response rating” value (soybean; [6]) was 6. The “Plant response rating, Soybean” value (soybean; [7]) was 3, the “Sugarbeets plant response rating” value (sugar beet; [1]) was 0 and the “Plant response rating, Sugarbeets” value (sugar beet; [3]) was 0. For the same compound, the “Sugarbeets plant response rating” value (sugar beet; [4]) was 2, the “Sugarbeets plant response rating” value (sugar beet; [5]) was 3 and the “Sugarbeets plant response rating (0 to 10 scale)” value (sugar beet; Preemergence, Rate 250 g/ha) was 3. The “Sugarbeets plant response rating” value (sugar beet; [6]) was 4, the “Plant response rating, Sugarbeets” value (sugar beet; [7]) was 0 and the “Velvetleaf plant response rating” value (velvetleaf; [1]) was 0. The “Plant response rating, Velvetleaf” value (velvetleaf; [3]) was 4, the “Velvetleaf plant response rating” value (velvetleaf; [4]) was 3 and the “Velvetleaf plant response rating” value (velvetleaf; [5]) was 3. The “Velvetleaf plant response rating (0 to 10 scale)” value (velvetleaf; Preemergence, Rate 250 g/ha) was 6, the “Velvetleaf plant response rating” value (velvetleaf; [6]) was 7 and the “Plant response rating, Velvetleaf” value (velvetleaf; [7]) was 2. For the same compound, the “Wheat plant response rating” value (wheat; [1]) was 0, the “Plant response rating, Wheat” value (wheat; [3]) was 0 and the “Wheat plant response rating” value (wheat; [4]) was 3. For the same compound, the “Wheat plant response rating” value (wheat; [5]) was 8, the “Wheat plant response rating (0 to 10 scale)” value (wheat; Preemergence, Rate 250 g/ha) was 9 and the “Wheat plant response rating” value (wheat; [6]) was 10. The “Plant response rating, Wheat” value (wheat; [7]) was 0, the “Wild oats plant response rating” value (wild oat; [1]) was 0 and the “Plant response rating, Wild oats” value (wild oat; [3]) was 0. For the same compound, the “Wild oats plant response rating” value (wild oat; [4]) was 2, the “Wild oats plant response rating” value (wild oat; [5]) was 9 and the “Wild oats plant response rating (0 to 10 scale)” value (wild oat; Preemergence, Rate 250 g/ha) was 9. The “Wild oats plant response rating” value (wild oat; [6]) was 10, the “Plant response rating, Wild oats” value (wild oat; [7]) was 0 and the “Nutsedge plant response rating” value (purple nutsedge; [1]) was 0. The “Nutsedge plant response rating” value (purple nutsedge; [2]) was 0, the “Nutsedge plant response rating” value (purple nutsedge; [4]) was 0 and the “Nutsedge plant response rating” value (purple nutsedge; [5]) was 0. For the same compound, the “Nutsedge plant response rating (0 to 10 scale)” value (purple nutsedge; Preemergence, Rate 250 g/ha) was 0 and the “Plant response rating, Nutsedge” value (purple nutsedge; [7]) was 0.

From patent publication US6737383B1, “Herbicidal oxadiazolidines” (priority 1999, dated 2004)
